The record followed here is patent publication EP1044000B1, “COMBINATION THERAPY FOR THE TREATMENT OF AIDS” (MERCK & CO., INC., priority 1997, dated 1999).

The structures appear in SMILES notation. Read-outs that look alike come from different tables or passages of the source.

This data set is described as follows: Pharmacokinetic study of Compound A in combination with Indinavir with and without fasting (Example 12). The format is in vivo. The conditions noted are these: male, human, plasma, 600 mg Compound A (tablets) + 666 mg IDV (Indinavir), n=7; for concentration at 8 h / concentration at 12 h / concentration at 24 h: oral; for concentration at 8 h: plasma 8 hours after dosing, read-out: C8 hrs; for concentration at 12 h: plasma 12 hours after dosing, read-out: C12 hrs; for concentration at 24 h: plasma 24 hours after dosing, read-out: C24 hrs; for Cmax / Tmax / AUC: po, single oral dose; for Cmax / Tmax: arithmetic mean; for AUC: arithmetic mean (CV %). The procedure:
All of the subjects received the regimen once in the fasted state and once with a high-fat breakfast. The two single-dose treatments (fasted, fed) were administered in randomized crossover fashion, separated by one week. For treatments with food a breakfast consisting of two eggs, two strips of bacon, toast with two pats of butter (2 x 12.5 g), 120 g of fried potatoes and 240 ml of whole milk were consumed in no more than 15 minutes, and the test medication was administered within 5 minutes after completion of the breakfast. […] All of the doses of Compound A were administered as the sulfate salt form of Compound A. All of the Compound A doses were tablets containing 200 mg of Compound A. Other ingredients in the tablets included microcrystalline cellulose (Avicel PH 101), mannitol SD 200, croscarmellose sodium, hydroxypropyl cellulose and magnesium stearate. The tablets were film coated with a suspension of hydroxypropyl methylcellulose, hydroxypropyl cellulose and titanium dioxide. The safety of the subjects was monitored prior and subsequent to dosing by clinical adverse event reporting, measurement of vital signs, physical examinations, blood and urine laboratory safety tests, and ECGs. Plasma concentrations of Compound A were determined predose and at 0.5, 1, 1.5, 2, 3, 4, 6, 8, 12, 16, 20, 24, 30, 36 and 48 hours following each single dose in each period, using a reverse-phase HPLC column switching method with fluorescence detection.

Broadly, the Cmax is the peak of the concentration-time curve. For orientation: Tmax means the time from dosing to the highest level. Broadly, the AUC is the area under the concentration-time curve, a measure of exposure. With `CC(C)(C)NC(=O)[C@@H]1CN(Cc2cc3ccccc3o2)CCN1C[C@@H](O)C[C@@H](Cc1ccccc1)C(=O)N[C@H]1c2ccccc2C[C@H]1O` [Compound A, N-(2(R)-hydroxy-1(S)-indanyl)-2(R)-phenylmethyl-4-(S)-hydroxy-5-(1-(4-(2-benzo[b]furanylmethyl)-2(S)-N'-(t-butylcarboxamido)-piperazinyl))-pentaneamide], for the setting “fasted”, the concentration at 8 h was determined as 583 nM, the concentration at 12 h is 188 nM, the concentration at 24 h turned out to be 37 nM and the Cmax was 2920 nM. For the setting “fasted”, the Tmax turned out to be 2.6 h and the AUC was 15.7 µM·h. Besides, for the setting “fed (high-fat breakfast)”, the concentration at 8 h stood at 1320 nM, the concentration at 12 h is 433 nM, the concentration at 24 h is 58 nM and the Cmax was found to be 4230 nM. Besides, under “fed (high-fat breakfast)”, the time of peak concentration (Tmax) came out at 3.7 h and the area under the curve (AUC) amounted to 25.3 µM·h.
